PubChem BioAssay (NCI)
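Dose response: 5 concentrations. Exposure: 48 h. Format: 96-well plates. Endpoint: linear interpolation; highest concentration if not reached. TGI denotes the concentration required for complete inhibition of growth.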

Legend:
Test in all cases: NCI anticancer screen, dose series, 48 h
[1] = tested on: MALME-3M melanoma
[2] = tested on: SF-539 CNS
[3] = tested on: OVCAR-4 ovarian
[4] = tested on: OVCAR-3 ovarian
[5] = tested on: SN12C renal
[6] = tested on: LOX IMVI melanoma
[7] = tested on: HCC-2998 colon
[8] = tested on: CCRF-CEM leukemia
[9] = tested on: HL-60(TB) leukemia
[10] = tested on: SNB-75 CNS
[11] = tested on: CAKI-1 renal
[12] = tested on: ACHN renal
[13] = tested on: DMS 273 small cell lung
[14] = tested on: HT29 colon
[15] = tested on: SF-295 CNS
[16] = tested on: DU-145 prostate
[17] = tested on: MDA-N
[18] = tested on: HS 578T breast
[19] = tested on: BT-549 breast
[20] = tested on: MDA-MB-231 breast

| Compound | TGI [1] [µM] | TGI [2] [µM] | TGI [3] [µM] | TGI [4] [µM] | TGI [5] [µM] | TGI [6] [µM] | TGI [7] [µM] | TGI [8] [µM] | TGI [9] [µM] | TGI [10] [µM] | TGI [11] [µM] | TGI [12] [µM] | TGI [13] [µM] | TGI [14] [µM] | TGI [15] [µM] | TGI [16] [µM] | TGI [17] [µM] | TGI [18] [µM] | TGI [19] [µM] | TGI [20] [µM] |
| --- | --- | --- | --- | --- | --- | --- | --- | --- | --- | --- | --- | --- | --- | --- | --- | --- | --- | --- | --- | --- |
| O=C1C=C(Nc2ccccc2C(=O)CC(=O)C(=O)Nc2ccc(Cl)cc2)c2ccccc2C1=O | 24.1 | 50.2 | 37 | 9.29 | 26 | 4.98 | 35.8 | 33.1 | > 100 | 36 | > 83.4 | 55.1 | 31.1 | > 100 |  |  |  |  |  |  |
| CN(C)CCNC(=O)c1cccc2ccc(-c3ccc(Br)cc3)nc12 | 8.68 | 11.4 | 8.5 | 12.6 | 13.5 | 4.82 | 6.32 | 7.75 | 4.2 | 10.7 | 7.15 |  | 5.81 | 7.24 | 14.8 |  |  |  |  |  |
| CC(=O)c1ccccc1NC(=O)C(=O)C(C(=O)c1ccc2ccccc2c1)C1OC(=O)c2ccccc21 (stereo unspecified) | 23.3 | 22.1 | 57 | 54.3 | 37.9 | 26.4 | 18.3 | 40 | 43.6 | 25.6 | 48.1 | > 100 | 44.5 | 92.4 |  |  |  |  |  |  |
| CC[C@@]1(O)C[C@H](OC2CC(N(C)C)C(O)C(C)O2)c2c(cc3c(c2O)C(=O)c2c(O)ccc(O)c2C3=O)[C@H]1C(=O)OC (stereo partly specified) | 0.304 | 0.41 | 0.0918 | 0.924 | 1.47 | 0.772 | 0.579 | 0.603 | 0.218 | 0.354 | 0.25 |  | 0.406 | 0.559 | 0.389 |  |  |  |  |  |
| O=C(Cc1nc2ccc(C(=O)c3ccccc3)cc2[nH]c1=O)C(=O)Nc1nc2ccccc2[nH]1 | > 100 | > 100 | > 100 | > 100 | > 100 | > 100 | > 100 | > 100 | > 100 | > 100 | > 100 | > 100 | > 100 | > 100 | > 100 |  |  |  |  |  |
| O=C(CCBr)N1CCN(C(=O)CCBr)CC1 | 206 | 168 | 181 | 218 | 169 | 165 | 140 | 257 | 206 | 180 | 168 | 316 | 168 | 280 | 212 | 496 | 225 | 455 | 85.3 | 242 |
